Bases are written 5' to 3'; sugars and linkages follow in the same order, as letters with counts (s phosphorothioate, o phosphodiester; PS: all linkages phosphorothioate). The collection does not say whether C is 5-methylated. l = locked nucleic acid (LNA); d = 2'-deoxy (DNA)

For the data set, the target named is Tau. As to the kind of experiment: rat primary cortical neurons, FLIPR, 25 uM ASO.
Consider ATCACTTCGAACTCCT (sugars l3 d10 l3, PS), for which the calcium oscillation score was 159 % of control.

Regarding ATCAGAGGGTCTGAGC (sugars l3 d10 l3, PS), the calcium oscillation score is 59.3 % of control. The same measure for ATCAGAGGTTTCAGAG (sugars l3 d10 l3, PS): 0 % of control. The same measure for “ATCAGCCTTCATCACACT (sugars l4 d12 l2, PS)”: 87.7 % of control. In the case of “ATCAGTCTTATCTCCCA (sugars l3 d12 l2, PS)”, the calcium oscillation score is 49.2 % of control. For the sequence “ATCATAATCCTACCACCA (sugars l3 d13 l2, PS)”, the calcium oscillation score was 87.5 % of control.

As to ATCATATCCTAAGCAT (sugars l3 d9 l4, PS), the calcium oscillation score is 60.1 % of control. For “ATCATTTTTTATTCATAACT (sugars l4 d12 l4, PS)”, the calcium oscillation score was 53.4 % of control. The same measure for “ATCCAAGTCAATGCCTGGCT (sugars l3 d14 l3, PS)”: 34.2 % of control; for “ATCCAGCCATATTTCAACTC (sugars l3 d14 l3, PS)”: 28.2 % of control.

As to ATCCATTAATTTAGCC (sugars l3 d10 l3, PS), the calcium oscillation score was 76.7 % of control. “ATCCTAAGTCAACCACA (sugars l2 d11 l4, PS)”: the calcium oscillation score was 69 % of control. In the case of “ATCCTGGTGGCGTTGGCCTG (sugars l3 d14 l3, PS)”, the calcium oscillation score is 0 % of control. As for ATCCTTCTAAGTACAA (sugars l4 d8 l4, PS), the calcium oscillation score was 85.6 % of control.

Turning to ATCGCTTCCAGTCC (sugars l3 d8 l3, PS), the calcium oscillation score is 29.9 % of control.

With ATCTCAAGTCTTATTCT (sugars l4 d9 l4, PS), the calcium oscillation score is 48.8 % of control. The same measure for “ATCTTAATTCATTTAATTCT (sugars l4 d12 l4, PS)”: 93.1 % of control; for ATCTTAGGCTGGCCC (sugars l3 d9 l3, PS): 50.6 % of control.

“ATCTTATTGCTTTCCAA (sugars l4 d10 l3, PS)”: the calcium oscillation score is 75.3 % of control.

On to ATCTTCGACTGGACTC (sugars l3 d10 l3, PS), for which the calcium oscillation score was 59.7 % of control. The same measure for “ATGACATTTTAAACCCC (sugars l3 d11 l3, PS)”: 54.9 % of control. The same measure for “ATGACCTCAACTCTACCT (sugars l3 d13 l2, PS)”: 61 % of control. The same measure for “ATGAGCACTAACTCTAAGTA (sugars l3 d14 l3, PS)”: 4.76 % of control; for “ATGAGCCACACTTGGAGGTC (sugars l3 d14 l3, PS)”: 19.9 % of control; for ATGATGGATGTTGCCT (sugars l3 d10 l3, PS): 0 % of control.

Regarding “ATGATGGATGTTGCCTAATG (sugars l3 d14 l3, PS)”, the calcium oscillation score is 0 % of control. As for “ATGATTAATTACACCCC (sugars l3 d11 l3, PS)”, the calcium oscillation score is 8.2 % of control. Turning to ATGATTGTGGGCTTA (sugars l3 d9 l3, PS), the calcium oscillation score was 7.83 % of control.

Turning to ATGATTGTGGGCTTAG (sugars l3 d10 l3, PS), the calcium oscillation score was 24.4 % of control. In the case of ATGCAGGAGTTGTAAG (sugars l3 d10 l3, PS), the calcium oscillation score is 40.8 % of control. The same measure for ATGCTTACACACCACA (sugars l2 d10 l4, PS): 88.5 % of control; for “ATGGATGTTGCCTAATGAGC (sugars l3 d14 l3, PS)”: 0 % of control. The same measure for ATGTCGATGCTGCC (sugars l3 d8 l3, PS): 137 % of control. The same measure for ATGTCGATGCTGCCGG (sugars l3 d10 l3, PS): 0 % of control; for ATGTTGCCTAATGAGC (sugars l3 d10 l3, PS): 69 % of control; for “ATGTTGCCTAATGAGCCACA (sugars l3 d14 l3, PS)”: 31.6 % of control.

“ATGTTTTTTAACTCCCA (sugars l3 d11 l3, PS)”: the calcium oscillation score was 83.5 % of control. The same measure for “ATTAACATATTTTTACCTA (sugars l4 d11 l4, PS)”: 65.3 % of control; for ATTAACCAATTAACCG (sugars l3 d10 l3, PS): 103 % of control; for “ATTAACCAATTAACCGAACT (sugars l3 d14 l3, PS)”: 45.2 % of control. The same measure for “ATTAACCCTTGATCATATTT (sugars l3 d14 l3, PS)”: 40.5 % of control. ATTAACCGAACTGCGA (sugars l3 d10 l3, PS): the calcium oscillation score was 10.9 % of control. In the case of ATTAATTACACCCCTG (sugars l3 d9 l4, PS), the calcium oscillation score was 5.47 % of control. The same measure for “ATTAATTATCTGCACCT (sugars l4 d10 l3, PS)”: 24.7 % of control; for “ATTAATTATTAAATCTTCT (sugars l4 d11 l4, PS)”: 63.9 % of control. As for “ATTAATTATTAAATCTTCTC (sugars l4 d12 l4, PS)”, the calcium oscillation score is 72.6 % of control. For “ATTATCATCCATTCTGA (sugars l2 d11 l4, PS)”, the calcium oscillation score was 45.6 % of control.

Take “ATTATTCTTTTTTTTTCCAC (sugars l3 d14 l3, PS)”: the calcium oscillation score was 15.2 % of control. The same measure for “ATTATTTACACTGTCCT (sugars l2 d11 l4, PS)”: 78.1 % of control; for “ATTCACACAACAAACTATT (sugars l4 d11 l4, PS)”: 74.5 % of control. The same measure for “ATTCATAAATGACTATACTT (sugars l3 d14 l3, PS)”: 68.5 % of control; for “ATTCATTTTACTTTACTTT (sugars l4 d11 l4, PS)”: 64.6 % of control.

Consider “ATTCATTTTACTTTACTTTT (sugars l4 d12 l4, PS)”, for which the calcium oscillation score was 88.6 % of control. “ATTCCACACATAAACAAACA (sugars l4 d12 l4, PS)”: the calcium oscillation score is 63.8 % of control. The same measure for “ATTCCCAAATTCCTCATAAT (sugars l4 d14 l2, PS)”: 58.6 % of control; for “ATTCCTTTCAATGACCA (sugars l4 d11 l2, PS)”: 49.7 % of control. The same measure for “ATTCTCAGCACACCATT (sugars l4 d11 l2, PS)”: 41.3 % of control; for “ATTGCAACTTTAACTCC (sugars l3 d10 l4, PS)”: 62.9 % of control; for “ATTGTCCAGGGACCCAATCT (sugars l3 d14 l3, PS)”: 50.9 % of control. Turning to “ATTTAATTTATTTTTTACT (sugars l4 d11 l4, PS)”, the calcium oscillation score is 60.1 % of control. Consider “ATTTAATTTATTTTTTACTT (sugars l4 d12 l4, PS)”, for which the calcium oscillation score was 50.1 % of control.

On to “ATTTAGTCACCATCACT (sugars l3 d10 l4, PS)”, for which the calcium oscillation score was 102 % of control. The same measure for ATTTAGTTACTCATCC (sugars l4 d8 l4, PS): 72.6 % of control; for “ATTTAGTTTTCCCACCC (sugars l2 d13 l2, PS)”: 63.4 % of control; for “ATTTAGTTTTCCCACCCA (sugars l1 d15 l2, PS)”: 48 % of control. The same measure for “ATTTATTAATTCATAAATGA (sugars l3 d14 l3, PS)”: 46.3 % of control; for “ATTTATTCCATTGCTCT (sugars l2 d11 l4, PS)”: 42.4 % of control. The same measure for “ATTTATTCTTTTTATTATTT (sugars l4 d12 l4, PS)”: 59.6 % of control. With “ATTTCAGAGCAAAGTGACCC (sugars l3 d14 l3, PS)”, the calcium oscillation score is 74.5 % of control. The same measure for ATTTCCAAATTCACTT (sugars l3 d10 l3, PS): 111 % of control. “ATTTCCAAATTCACTTTTAC (sugars l1 d17 l2, PS)”: the calcium oscillation score is ≥ 200 % of control. As to “ATTTCCAAATTCACTTTTAC (sugars l2 d1 l2 d11 l4, PS)”, the calcium oscillation score was 147 % of control.

Consider “ATTTCCAAATTCACTTTTAC (sugars l2 d16 l2, PS)”, for which the calcium oscillation score was ≥ 200 % of control. The same measure for “ATTTCCAAATTCACTTTTAC (sugars l3 d14 l3, PS)”: ≥ 200 % of control.

As to “ATTTCCAAATTCACTTTTAC (sugars l4 d10 l2 d2 l2, PS)”, the calcium oscillation score is 137 % of control.

“ATTTCCAAATTCACTTTTAC (sugars l4 d11 l5, PS)”: the calcium oscillation score is 136 % of control. For “ATTTCCAAATTCACTTTTAC (sugars l5 d10 l5, PS)”, the calcium oscillation score is ≥ 200 % of control. The same measure for “ATTTCCAAATTCACTTTTAC (sugars l5 d11 l4, PS)”: 78.8 % of control; for “ATTTCCAAATTCACTTTTAC (sugars ldlllddddddddddlldll, PS)”: 143 % of control; for “ATTTCCAAATTCACTTTTAC (sugars llddldldddddddddllll, PS)”: 143 % of control. The same measure for “ATTTCCAAATTCACTTTTAC (sugars llddlldddddddddldlll, PS)”: 112 % of control; for “ATTTCCAAATTCACTTTTAC (sugars llddlldddddddddlldll, PS)”: 122 % of control. The same measure for “ATTTCCAAATTCACTTTTAC (sugars lldldldddddddddldlll, PS)”: 122 % of control. As for “ATTTCCAAATTCACTTTTAC (sugars lldllddddddddddlldll, PS)”, the calcium oscillation score was 85.2 % of control.

In the case of “ATTTCCAAATTCACTTTTAC (sugars lldlldddddddddlddlll, PS)”, the calcium oscillation score is 35.4 % of control. For “ATTTCCAAATTCACTTTTAC (sugars lldlldddddddddldldll, PS)”, the calcium oscillation score was 83 % of control. The same measure for “ATTTCCAAATTCACTTTTAC (sugars lldlldddddddddllddll, PS)”: 120 % of control. The same measure for “ATTTCCAAATTCACTTTTAC (sugars lllddldddddddddldlll, PS)”: 125 % of control; for “ATTTCCAAATTCACTTTTAC (sugars lllddldddddddddlldll, PS)”: 110 % of control; for “ATTTCCAAATTCACTTTTAC (sugars llldlddddddddddldlll, PS)”: 135 % of control. The same measure for “ATTTCCAAATTCACTTTTAC (sugars llldldddddddddlddlll, PS)”: 118 % of control; for “ATTTCCAAATTCACTTTTAC (sugars llldldddddddddldldll, PS)”: 123 % of control.

The record behind these values is the OligoGym collection.
